Assays:
[1] = system: MDA-MB-231; test: MTS assay cell viability screening in MDA-MB-231; type: cell-based, human; details: 0, 1, and 5 µM, 72 hours
Experimental: (§1) MDA-MB-231 (Cell seeding numbers: 0.8(M231) x 10^4 cells/wells (confluency ≧ 25%), which is a human triple-negative breast cancer (TNBC) cell line, and JIMT-1 (Cell seeding numbers: 0.8(JIMT) x 10^4 cells/wells (confluency ≧ 25%)), which is a HER2 positive breast cancer (HER2+ BC) cell line, were used in the experiment.
(§2) The above cell lines were cultured in Dulbecco's modified Eagle's medium (DMEM) containing 10% fetal bovine serum (FBS), streptomycin-penicillin (100 U/mL), and Fungizone (0.625 µg/mL) at 5% CO2 and 37°C.
(§3) The human breast cancer cell lines MDA-MB-231 and JIMT-1 were treated with quinazoline-benzimidazole derivatives of Formulas 1-1 to 1-31 at various concentrations of 0, 1, and 5 µM, respectively, for 72 hours, and then cell viability was measured using the MTS assay technique. In the MTS assay, cells were attached to a 96-well plate for 24 hours, treated with the quinazoline-benzimidazole derivative for 72 hours, developed with MTS (3-(4,5-dimethylthiazol-2-yl)-5-(3-carboxymethoxyphenyl)-2-(4-sulfophenyl)-2H-tetrazolium) for 4 hours, and then absorbance was measured at 490 nm using a Spectramax Plus384 microplate analyzer.

[2] = system: JIMT-1; test: MTS assay cell viability in JIMT-1; type: cell-based, human; details: 72 hours; for inhibition of cell viability: JIMT-1 (trastuzumab-resistant), 0, 0.1, 0.5, 1, 2, and 5 µM; for cell viability: JIMT-1, 0, 1, and 5 µM
Experimental: as §1, §2, §3
(§4) In addition, after treatment with compounds 1-15, 1-16, 1-19, and 1-22 at a concentration of 5 µM for 48 hours in SKBR3 and JIMT-1 cell lines, morphological changes of the cells were observed using an optical microscope, and the results are shown in B of FIG. 4.

[3] = system: SKBR3; test: MTS assay cell viability in SKBR3; type: cell-based; details: SKBR3 (trastuzumab-sensitive), 0, 0.1, 0.5, 1, 2, and 5 µM, 72 hours
[4] = system: SKBR3; test: Cell morphology by optical microscope in SKBR3; type: cell-based; details: 5 µM, 48 hours
Experimental: as §4

[5] = system: JIMT-1; test: Cell morphology by optical microscope in JIMT-1; type: cell-based, human; details: 5 µM, 48 hours
Experimental: as §4

[6] = system: SKBR3; test: Annexin V/PI staining flow cytometry in SKBR3; type: cell-based; details: 5 µM, 48 hours
Experimental: (§5) Subsequently, after treatment with the compounds of Formulas 1-16 and 1-19 at a concentration of 5 µM for 48 hours in SKBR3 and JIMT-1 cell lines, the degree of apoptosis was measured by flow cytometry through Annexin V/PI staining, and the results are shown in A of FIG. 5. […] After treatment in the same manner as above, expression of apoptosis-related proteins and degradation of tubulin protein were confirmed by western blot, and the results are shown in B of FIG. 5.

[7] = system: JIMT-1; test: Annexin V/PI staining flow cytometry in JIMT-1; type: cell-based, human; details: 5 µM, 48 hours
Experimental: as §5

[8] = system: tubulin protein; test: Western blot of apoptosis-related proteins and tubulin in SKBR3; type: cell-based; details: 5 µM, 48 hours
Experimental: as §5

[9] = system: tubulin protein; test: Western blot of apoptosis-related proteins and tubulin in JIMT-1; type: cell-based, human; details: 5 µM, 48 hours
Experimental: as §5

[10] = system: JIMT-1; test: Cell cycle analysis by propidium iodide flow cytometry in JIMT-1; type: cell-based, human; details: 5 µM, 48 hours, PI staining
Experimental: In order to confirm this, the following experiments were performed. After treatment with the compounds of Formulas 1-16 and 1-19 at a concentration of 5 µM for 48 hours in a trastuzumab-resistant HER2-positive breast cancer cell JIMT-1, the cells were stained with propidium iodide (PI), and the cell cycle was analyzed according to DNA content using flow cytometry, and the results are shown in A of FIG. 6.

[11] = system: phospho-Histone H3; test: phospho-Histone H3 immunocytochemistry in JIMT-1; type: cell-based, human; details: 5 µM, 24 hours
Experimental: In addition, after treatment with compounds 1-16 and 1-19 at a concentration of 5 µM for 24 hours in a JIMT-1 cell line, expression of phospho-Histone H3, a marker of mitosis, was confirmed by immunocytochemistry, and the results are shown in B of FIG. 6.

[12] = system: HER2, HER family members (HER3 and EGFR), and AKT and MEK; test: Western blot of HER2 signaling proteins in JIMT-1; type: cell-based, human; details: 5 µM, 24, 48, and 72 hours
Experimental: Then, after treatment with the compounds of Formulas 1-16 and 1-19 at a concentration of 5 µM for 24, 48, and 72 hours in a JIMT-1 cell line, protein expression and phosphorylation of HER2, HER family members (HER3 and EGFR), and AKT and MEK of downstream signaling mechanism were confirmed by western blot, and the results are shown in FIG. 7. […] Thereby, it was confirmed that the quinazoline-benzimidazole derivatives of the disclosure have a tyrosine kinase inhibitory effect on HER2 as in the above-described design objective.

[13] = system: lung cancer cell line H1299; test: MTS assay cell viability in H1299; type: cell-based; details: 0, 0.1, 0.5, 1, 5, and 10 µM, 72 hours
[14] = system: colorectal cancer cell line HCT116; test: MTS assay cell viability in HCT116; type: cell-based; details: 0, 0.1, 0.5, 1, 5, and 10 µM, 72 hours
[15] = system: ovarian cancer cell line SKOV3; test: MTS assay cell viability in SKOV3; type: cell-based; details: 0, 0.1, 0.5, 1, 5, and 10 µM, 72 hours
[16] = system: prostate cancer cell line Du145; test: MTS assay cell viability in Du145; type: cell-based; details: 0, 0.1, 0.5, 1, 5, and 10 µM, 72 hours
[17] = system: hepatic cancer cell line HepG2; test: MTS assay cell viability in HepG2; type: cell-based; details: 0, 0.1, 0.5, 1, 5, and 10 µM, 72 hours
[18] = system: hematological cancer cell line HL-60; test: MTS assay cell viability in HL-60; type: cell-based; details: 0, 0.1, 0.5, 1, 5, and 10 µM, 72 hours

| SMILES | cell viability [1] | inhibition of cell viability [2] | cell viability [2] | inhibition of cell viability [3] | morphological changes of the cells [4] | morphological changes of the cells [5] | degree of apoptosis [6] | degree of apoptosis [7] | expression of apoptosis-related proteins and degradation of tubulin protein [8] | expression of apoptosis-related proteins and degradation of tubulin protein [9] | cell cycle according to DNA content [10] | expression of phospho-Histone H3, a marker of mitosis [11] | activities of HER2, p95HER2, HER3, EGFR, AKT, and MEK [12] | protein expression and phosphorylation of HER2, HER family members (HER3 and EGFR), and AKT and MEK [12] | cell viability [13] | cell viability [14] | cell viability [15] | cell viability [16] | cell viability [17] | cell viability [18] |
| --- | --- | --- | --- | --- | --- | --- | --- | --- | --- | --- | --- | --- | --- | --- | --- | --- | --- | --- | --- | --- |
| Cc1ccc(-c2nc3ccc(-c4ccc5ncn(CCN6CCCCC6)c(=O)c5c4)cc3[nH]2)cc1 [Formula 1-19] | excellent activity | concentration-dependent inhibition of cell viability | excellent activity | concentration-dependent inhibition of cell viability | typical apoptotic morphology | typical apoptotic morphology | effectively induced early and late apoptosis | effectively induced early and late apoptosis | apoptosis effect by inhibiting tubulin polymerization | apoptosis effect by inhibiting tubulin polymerization | G2/M phase cell cycle arrest | increased abnormal expression of a phospho-Histone H3 protein | effectively inhibited | decreased in a time-dependent manner | effectively inhibited | effectively inhibited | effectively inhibited | effectively inhibited | effectively inhibited | effectively inhibited |
| O=c1c2cc(-c3ccc4nc(-c5ccc(Cl)cn5)[nH]c4c3)ccc2ncn1CCN1CCCCC1 [Formula 1-22, 6-(2-(5-Chloropyridin-2-yl)-1H-benzo[d]imidazol-6-yl)-3-(2-(piperidin-1-yl)ethyl)quinazolin-4(3H)-one] | excellent activity | concentration-dependent inhibition of cell viability | excellent activity | concentration-dependent inhibition of cell viability | typical apoptotic morphology | typical apoptotic morphology | – | – | – | – | – | – | – | – | – | – | – | – | – | – |
| O=c1c2cc(-c3ccc4nc(-c5ccc(Cl)cc5)[nH]c4c3)ccc2ncn1CCN1CCCCC1 [Formula 1-15, 6-(2-(4-Chlorophenyl)-1H-benzo[d]imidazol-6-yl)-3-(2-(piperidin-1-yl)ethyl)quinazolin-4(3H)-one] | excellent activity | concentration-dependent inhibition of cell viability | excellent activity | concentration-dependent inhibition of cell viability | typical apoptotic morphology | typical apoptotic morphology | – | – | – | – | – | – | – | – | – | – | – | – | – | – |
| O=c1c2cc(-c3ccc4nc(-c5ccc(F)c(Cl)c5)[nH]c4c3)ccc2ncn1CCN1CCCCC1 [Formula 1-16] | excellent activity | concentration-dependent inhibition of cell viability | excellent activity | concentration-dependent inhibition of cell viability | typical apoptotic morphology | typical apoptotic morphology | effectively induced early and late apoptosis | effectively induced early and late apoptosis | apoptosis effect by inhibiting tubulin polymerization | apoptosis effect by inhibiting tubulin polymerization | G2/M phase cell cycle arrest | increased abnormal expression of a phospho-Histone H3 protein | effectively inhibited | decreased in a time-dependent manner | effectively inhibited | effectively inhibited | effectively inhibited | effectively inhibited | effectively inhibited | effectively inhibited |
